The results in this text go back to patent US5789602A, “Physiologically active substances PF1092A, PF1092B and PF1092C, process for the production thereof, and contraceptives and anticancer drugs containing the same as active ingredients” (Meiji Seika Kaisha, Ltd., priority 1995, dated 1998).

Data set [1] deals with T1, progesterone receptor (Sus scrofa, UniProt D0EWS6).
T1 construct: from tissue; host or cells: hog uterus, cytosol (100,000×g supernatant)
T1 sequence (D0EWS6 1-934): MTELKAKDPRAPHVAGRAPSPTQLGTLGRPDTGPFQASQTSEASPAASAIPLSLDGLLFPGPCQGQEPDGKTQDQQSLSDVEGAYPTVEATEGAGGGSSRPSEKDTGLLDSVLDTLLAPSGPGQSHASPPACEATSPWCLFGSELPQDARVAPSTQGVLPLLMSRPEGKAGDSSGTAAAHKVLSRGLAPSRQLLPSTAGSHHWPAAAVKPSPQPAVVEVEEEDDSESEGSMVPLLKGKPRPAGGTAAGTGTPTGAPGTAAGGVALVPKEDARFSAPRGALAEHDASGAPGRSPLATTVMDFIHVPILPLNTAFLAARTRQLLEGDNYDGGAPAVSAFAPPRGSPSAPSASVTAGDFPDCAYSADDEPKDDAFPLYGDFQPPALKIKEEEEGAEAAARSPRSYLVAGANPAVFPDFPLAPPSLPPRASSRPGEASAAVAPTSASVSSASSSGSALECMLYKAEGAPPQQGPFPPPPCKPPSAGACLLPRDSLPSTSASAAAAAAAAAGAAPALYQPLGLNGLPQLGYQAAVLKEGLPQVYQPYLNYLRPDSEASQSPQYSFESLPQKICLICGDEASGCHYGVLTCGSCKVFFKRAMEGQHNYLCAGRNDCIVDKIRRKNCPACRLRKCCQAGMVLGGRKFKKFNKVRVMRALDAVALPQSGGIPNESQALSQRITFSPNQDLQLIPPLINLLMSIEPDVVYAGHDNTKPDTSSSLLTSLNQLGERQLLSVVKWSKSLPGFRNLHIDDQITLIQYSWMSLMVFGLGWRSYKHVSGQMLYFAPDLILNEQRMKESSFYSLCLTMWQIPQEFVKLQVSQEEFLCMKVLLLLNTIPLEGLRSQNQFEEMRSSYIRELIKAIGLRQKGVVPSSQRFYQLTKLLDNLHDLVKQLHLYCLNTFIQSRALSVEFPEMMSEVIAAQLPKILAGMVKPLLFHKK
Kind of data set: progesterone receptor binding activity (3H-progesterone, hog uterus cytosol). Also on record: species or system hogs. Particulars: 1 h, 30 μM test substance, 4° C., 60 minutes, read-out: inhibition of the binding of 3H-progesterone to the progesterone receptor (inhibition ratio). As for the experimental part:
The progesterone receptor binding activity of substance PF1092A, substance PF1092B and substance PF1092C of the present invention was measured in the following manner in accordance with the method of H. Kondo et al. (J. Antibiotics, vol. 43, pp. 1533-1542, 1990). That is, uteri taken from hogs in 5 mM phosphate buffer were disrupted using Polytron homogenizer, and the resulting solution was subjected to centrifugation (100,000×g, 30 minutes) to separate the supernatant fluid which was used as the cytosol containing progesterone receptor.
In the assay of progesterone receptor binding activity, 40 μl of a solution of ^3 H-progesterone as a ligand of the receptor (3.84 TBq/mmol, 18.5 kBq/ml), 50 μl of the just obtained cytosol (2-3 mg protein/ml), 30 μM of substance PF1092A, substance PF1092B and substance PF1092C and 30 μM of medroxyprogesterone acetate (MPA) were put into a test tube and incubated at 4° C. for 60 minutes to effect the reaction and then mixed with 100 μl of 0.5% activated carbon solution. After 10 minutes of standing, this was subjected to centrifugation (2,000×g, 10 minutes), and radioactivity of the thus obtained supernatant fluid was measured using a liquid scintillation counter. Inhibition ratio was calculated based on the following formula in which radioactivity with no addition of the test drug was defined as the amount of total binding to the cytosol and radioactivity with the addition of MPA was defined as the amount of non-specific binding. [formula]

Data set [2] in a line: Solubility (physico-chemical properties). Format: physicochemical. Particulars: qualitative, in organic solvents and in water.

“Also recorded” adds a separate entry of the source.

As for `CC(=O)OC1C(O)C=C2C=C3OC(=O)C(C)=C3CC2(C)C1C` (stereo not drawn) [PF1092A], in data set [1], the inhibition at 30 µM was ≥ 90%. Also, the Solubility entry in data set [2] is “soluble in chloroform, acetone, ethyl acetate, methanol and dimethyl sulfoxide, and insoluble in water and hexane”.
Take `CC(=O)OC1C=C2C=C3OC(=O)C(C)=C3CC2(C)C(C)C1O` (stereo not drawn) [PF1092B]: in data set [1], the inhibition at 30 µM is ≥ 90%. Moreover, in data set [2], the Solubility entry was “soluble in chloroform, acetone, ethyl acetate, methanol and dimethyl sulfoxide, and insoluble in water and hexane”.
Take `CC1=C2CC3(C)C(=CC(O)C(O)C3C)C=C2OC1=O` (stereo not drawn) [PF1092C]: the inhibition at 30 µM in data set [1] is ~70%. The Solubility entry in data set [2] was “soluble in chloroform, acetone, ethyl acetate, methanol and dimethyl sulf oxide, and insoluble in water and hexane; also recorded: soluble in chloroform, acetone, ethyl acetate, methanol and dimethyl sulfoxide, and insoluble in water and hexane”.
